{"source": "paper PMC8372822", "about": "“A Concise Synthetic Strategy Towards the Novel Calcium-dependent Lipopeptide Antibiotic, Malacidin A and Analogues” (Frontiers in Chemistry, 2021)", "key": {"[1]": {"tested_on": "Staphylococcus aureus ATCC 6538", "experiment": "microbe, parasite or virus in culture", "assay_type": "cell-based", "conditions": "for MIC: S. aureus ATCC 6538, CAMHB, in presence of 50 mg L^-1 of CaCl2, 37 °C, 18 to 24 h, biological triplicate, maximum concentration 128 µg mL^-1", "experimental": "Antimicrobial susceptibility testing was performed in biological triplicate by determining the minimum inhibitory concentrations (MIC) of the six malacidin analogues and the control antibiotics, penicillin G and daptomycin. Malacidin analogues 31, 36, 39, and 40 were prepared as 10 mg mL^-1 stock solutions in filter sterilised MilliQ water. Compounds 37, and 38 were prepared as 5 mg mL^-1 stock solutions in filter sterilised MilliQ water. Malacidin analogues were tested at a maximum concentration of 128 µg mL^-1. Bacterial inoculums of Staphylococcus aureus ATCC 6538 were prepared by diluting an overnight culture to a final optical density 600 nm (OD600) of 0.003 in cation adjusted Mueller Hinton broth (CAMH) to yield 5 × 10^5 CFU mL^-1 (final) in all assays. MIC assays were performed in 96-well microtiter plates in a total volume of 100 µL, and compounds were serially diluted across the plate in 2-fold dilutions. The MIC was reported as the lowest concentration of the test compound for which no growth occurred after incubation at 37 °C for 18 to 24 h. For all MIC testing CAMHB was supplemented with calcium (50 mg L^-1 final) as per the CLSI guidelines for daptomycin^17\nTable S3. MIC values of simplified analogues 31, 36-40 in presence of 50 mg L^-1 of CaCl2.^aTesting was additionally performed in the absence of CaCl2 and no activity for any of the malacidin analogues was observed against S. aureus."}, "[2]": {"tested_on": "methicillin-resistant Staphylococcus aureus (MRSA), MRSA USA300", "conditions": "ref Hover et al., 2018, cited from earlier work", "description": "In 2018, Brady et al. reported the isolation of malacidin A (1) as part of an extensive metagenomic mining study of bacterial DNA obtained from soil samples in search of novel bioactive natural products ([Owen et al., 2013]; [Hover et al., 2018]). […] Malacidin ... || FIGURE 1 Structure of malacidin A (1); non-canonical amino acids and the lipid tail are highlighted in purple; the undefined stereochemistry of β-carbon centers is indicated with an asterisk; the calcium-binding region residues are specified in red; the macrolactam bond is highlighted with blue shading. The stereochemistry and MIC values of the isolated malacidin A (1) ([Hover et al., 2018]) and synthesized diastereomers [this work 1a, the Li group 1b–1e ([Sun et al., 2020])] are shown above; X in 1 represents undefined stereochemistry. TEXT PRINTED IN THE PICTURE: Malacidin A (1): MIC (μg mL^ ..."}, "[3]": {"conditions": "cited from earlier work", "description": "(§1) In 2018, Brady et al. reported the isolation of malacidin A (1) as part of an extensive metagenomic mining study of bacterial DNA obtained from soil samples in search of novel bioactive natural products ([Owen et al., 2013]; [Hover et al., 2018]). […] Malacidin ..."}, "[4]": {"tested_on": "S. aureus", "conditions": "after repeated exposure to S. aureus; ref Hover et al., 2018; cited from earlier work", "description": "as §1"}, "[5]": {"tested_on": "vancomycin-resistant Enterococcus faecium (VRE)", "conditions": "ref Hover et al., 2018; cited from earlier work", "description": "as §1"}, "[6]": {"conditions": "ref Hover et al., 2018; cited from earlier work", "description": "Evaluation of the antibacterial activity of the synthesized analogues 1a, 31 and 36–40 was then undertaken."}, "[7]": {"tested_on": "Staphylococcus aureus (ATCC 29213)", "assay_type": "cell-based", "experimental": "MIC assays were performed in accordance with the CLSI recommended protocol^17 with minor adjustments. Briefly, Staphylococcus aureus (ATCC 29213) was grown at 37 °C with shaking (200 rpm) in Mueller Hinton (MH) broth supplemented with either 1.5 mM (near the concentration commonly employed for daptomycin testing [1.25 mM]) or 15 mM CaCl2 (in accordance with the reported testing of malacidin by Hover et al.^1) from an autoclaved stock solution of CaCl2. The respective Ca^2+ adjusted media was used for all further compound and culture dilutions. A two-fold dilution series of the test compounds was prepared in triplicate in polypropylene 96-well plates. Cultures of bacteria grown for 8 h were diluted accordingly in fresh media before adding 50 µL of inoculum to each well of the MIC plate, to achieve a final volume of 100 µL with a uniform CFU/ml of ~5 x10^5 in each well. A growth control (untreated) and sterility control (non-inoculated) well were included for each test compound replicate. Plates were incubated at 37 °C with shaking for 18 h before determining the MIC by visual inspection. MIC values were determined as the lowest concentration at which no growth was observed consistently across all three biological replicates of the assay and within triplicates of each test compound.\nTable S2. MIC values of diastereomer 1a at different CaCl2 concentrations."}, "[8]": {"experiment": "Ca2+ binding capability by 1H NMR in the presence of CaCl2", "conditions": "1a 5.6 mM in D2O, CaCl2 at 1.5 mM and 15 mM, 500 MHz, 298 K", "experimental": "Despite these differences, it was observed that the lipid sp^2 proton signals closely matched that of the natural product and no peaks arising from cis-trans isomerization were observed, indicating the tolerance of acid-sensitive lipid 25 to the optimized TFA side chain deprotection conditions and HPLC purification protocols.\n[picture] Figure S16. Overlay of ^1H NMR spectra of synthetic 1a (5.6 mM) recorded at 500 MHz, 298 K in D2O spiked with Et3N (1.88 mM) and CaCl2 of varying concentrations: 0 mM CaCl2 (bottom), 1.5 mM CaCl2 (middle), 15 mM CaCl2 (top)."}}, "note": "Where two headings read alike, the source gives them in different places. Positions of bridges follow the written chain, without caps; N, C: chain ends. Non-standard residues stand in square brackets, D forms with d. Residues, ends and D or L forms follow the SMILES beside them. *: point of attachment. Benzoyl(4-Ph) = O=C(c1ccc(-c2ccccc2)cc1)*; Decanoyl = CCCCCCCCCC(=O)*; Dap = NC[C@H](N)C(=O)O"}
{"compound": "CC1(C)S[C@@H]2[C@H](NC(=O)Cc3ccccc3)C(=O)N2[C@H]1C(=O)O", "note": "[Penicillin G, penicillin G]", "values": [{"measurement": "MIC", "setting": "[1]; Staphylococcus aureus, ATCC6538, read-out: MIC", "value": 0.0312, "unit": "µg/mL"}]}
{"compound": "CC(C)[C@@H]1NC(=O)[C@@H](CC(=O)O)NC(=O)CNC(=O)[C@H](CC(=O)O)NC(=O)[C@H](CC(=O)O)NC(=O)[C@H](CCCCN)NC(=O)[C@@H](C(C)C)NC(=O)[C@@H](NC(=O)[C@H](CC(=O)O)NC(=O)c2ccc(-c3ccccc3)cc2)CNC(=O)[C@@H]2CCCN2C1=O", "note": "[compound 40] ({Benzoyl(4-Ph)}-D[Dap][dV]KDDG[dD]VP; lactam 2-C)", "values": [{"measurement": "MIC", "setting": "[1]", "value": ">128 >128 µg/mL"}]}
{"compound": "CCCCCCCCCC(=O)N[C@@H](CC(=O)O)C(=O)N[C@H]1CNC(=O)[C@@H]2CCCN2C(=O)[C@H](C(C)C)NC(=O)[C@@H](CC(=O)O)NC(=O)CNC(=O)[C@H](CC(=O)O)NC(=O)[C@H](CC(=O)O)NC(=O)[C@H](CCCCN)NC(=O)[C@@H](C(C)C)NC1=O", "note": "[compound 31] (Decanoyl-D[Dap][dV]KDDG[dD]VP; lactam 2-C)", "values": [{"measurement": "activity toward S. aureus", "setting": "[1]; media supplemented with 1.25–1.5 mM CaCl2 (Supplementary Table S3)", "value": "no activity"}]}
{"compound": "malacidin A", "values": [{"measurement": "MIC", "setting": "[2]; MRSA", "value": "0.2 to 0.8", "unit": "µg/mL"}, {"measurement": "MIC", "setting": "[2]; S.aureus strain: MRSA USA300, Figure 1", "value": "0.2 to 0.8", "unit": "µg/mL"}, {"measurement": "cytotoxicity", "setting": "[3]", "value": "non-cytotoxic"}, {"measurement": "molecular target bound", "setting": "[3]; preliminary mechanistic studies, ref Hover et al., 2018", "value": "binding to lipid II"}, {"measurement": "induction of resistance", "setting": "[4]", "value": "did not induce resistance"}, {"measurement": "MIC", "setting": "[5]", "value": "0.8 to 2.0", "unit": "µg/mL"}, {"measurement": "CaCl2 concentration of maximum activity", "setting": "[6]", "value": 15, "unit": "mM"}]}
{"compound": "CC(C)CC/C=C\\C=C\\C(=O)N[C@H](C(=O)N[C@@H]1C(=O)N[C@H](C(C)C)C(=O)N[C@@H](CCCCN)C(=O)N[C@@H]([C@H](O)C(=O)O)C(=O)N[C@@H](CC(=O)O)C(=O)NCC(=O)N[C@H]([C@@H](C)C(=O)O)C(=O)N[C@@H](C(C)C)C(=O)N2C[C@H](C)C[C@H]2C(=O)N[C@H]1C)[C@H](C)C(=O)O", "note": "[1a]", "values": [{"measurement": "activity toward S. aureus", "setting": "[7]; 15 mM CaCl2 (Supplementary Table S2)", "value": "no activity"}, {"measurement": "MIC", "setting": "[7]; S.aureus strain: ATCC 29213, Figure 1, this work", "value": "> 64", "unit": "µg/mL"}, {"measurement": "activity toward S. aureus", "setting": "[7]; media supplemented with 1.25–1.5 mM CaCl2 (Supplementary Table S2)", "value": "no activity"}, {"measurement": "interaction with Ca^2+ ions (signal shifts or line broadening in 1H NMR)", "setting": "[8]", "value": "fails to interact with Ca^2+ ions"}]}
